The results in this text go back to ChEMBL document CHEMBL2074131, “Inhibition of P-glycoprotein function by XR9576 in a solid tumour model can restore anticancer drug efficacy” (Eur J Cancer, 2004).

This data set addresses ATP-dependent translocase ABCB1 (Homo sapiens, UniProt P08183). The data set is described as follows: TP_TRANSPORTER: drug resistance (vinblastine) in NCI/ADRRes cells. The data set is classed as functional, cell-based.

Sequence of ATP-dependent translocase ABCB1 (P08183 whole entry): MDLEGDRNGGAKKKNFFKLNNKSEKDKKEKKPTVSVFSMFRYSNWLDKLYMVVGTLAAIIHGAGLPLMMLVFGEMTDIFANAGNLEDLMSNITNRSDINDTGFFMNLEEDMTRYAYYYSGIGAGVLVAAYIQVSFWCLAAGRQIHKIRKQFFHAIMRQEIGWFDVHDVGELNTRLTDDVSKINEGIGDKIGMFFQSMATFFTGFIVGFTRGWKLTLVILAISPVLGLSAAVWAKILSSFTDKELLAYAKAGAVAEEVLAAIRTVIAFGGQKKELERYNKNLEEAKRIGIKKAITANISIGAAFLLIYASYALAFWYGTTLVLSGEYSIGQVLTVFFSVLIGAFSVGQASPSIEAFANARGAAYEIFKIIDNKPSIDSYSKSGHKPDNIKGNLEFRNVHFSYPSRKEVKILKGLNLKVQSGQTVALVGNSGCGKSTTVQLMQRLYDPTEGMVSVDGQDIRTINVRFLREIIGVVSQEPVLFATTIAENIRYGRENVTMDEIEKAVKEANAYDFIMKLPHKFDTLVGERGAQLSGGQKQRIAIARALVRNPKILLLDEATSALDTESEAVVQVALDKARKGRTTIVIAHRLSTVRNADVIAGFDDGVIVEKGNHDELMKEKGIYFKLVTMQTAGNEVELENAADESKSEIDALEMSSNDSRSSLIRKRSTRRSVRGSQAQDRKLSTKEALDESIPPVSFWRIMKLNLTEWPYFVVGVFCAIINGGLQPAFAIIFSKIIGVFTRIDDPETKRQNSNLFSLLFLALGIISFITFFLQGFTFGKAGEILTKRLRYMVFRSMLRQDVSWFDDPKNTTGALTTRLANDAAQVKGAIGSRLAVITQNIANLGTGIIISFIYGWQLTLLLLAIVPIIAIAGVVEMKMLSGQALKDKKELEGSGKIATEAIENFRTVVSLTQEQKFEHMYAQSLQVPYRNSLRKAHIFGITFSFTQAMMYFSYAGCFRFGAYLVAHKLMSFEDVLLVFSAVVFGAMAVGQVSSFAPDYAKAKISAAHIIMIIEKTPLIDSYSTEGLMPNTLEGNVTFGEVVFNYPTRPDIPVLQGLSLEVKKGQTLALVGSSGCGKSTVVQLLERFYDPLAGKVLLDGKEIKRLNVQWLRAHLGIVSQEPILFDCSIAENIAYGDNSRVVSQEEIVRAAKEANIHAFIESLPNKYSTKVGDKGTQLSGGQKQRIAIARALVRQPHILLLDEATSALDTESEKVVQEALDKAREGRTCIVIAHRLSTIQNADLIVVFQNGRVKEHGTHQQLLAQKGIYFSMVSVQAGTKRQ

For `COc1cc2c(cc1OC)CN(CCc1ccc(NC(=O)c3cc(OC)c(OC)cc3NC(=O)c3cnc4ccccc4c3)cc1)CC2` [TARIQUIDAR], the Activity entry is “inhibitor [+]”.
